Laboratory results: patent publication US8168673B2, “Compounds having CRTH2 antagonist activity” (Oxagen Limited, priority 2008, dated 2012)

Columns and labels:
CRTH2 Receptor [1] = molecular target: T1, CRTH2 Receptor (Homo sapiens, UniProt Q9Y5Y4); assay: Radioligand binding assay, [3H]PGD2 on CHO/CRTH2 cell membranes; conditions: [3H]PGD2 competition
T1 construct: expressed in transfected cells; membranes
T1 sequence (Q9Y5Y4 1-395): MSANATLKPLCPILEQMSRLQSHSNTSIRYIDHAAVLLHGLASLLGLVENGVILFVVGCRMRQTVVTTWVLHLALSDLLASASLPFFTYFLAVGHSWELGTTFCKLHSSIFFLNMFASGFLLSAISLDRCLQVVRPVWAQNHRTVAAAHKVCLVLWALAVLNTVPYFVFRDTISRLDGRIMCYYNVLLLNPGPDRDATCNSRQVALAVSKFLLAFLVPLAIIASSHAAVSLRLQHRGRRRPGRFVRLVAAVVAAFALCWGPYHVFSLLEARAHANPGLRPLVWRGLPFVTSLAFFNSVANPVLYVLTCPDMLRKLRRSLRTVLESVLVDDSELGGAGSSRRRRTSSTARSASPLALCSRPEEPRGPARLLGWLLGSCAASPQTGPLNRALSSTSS
Protocol: Chinese Hamster Ovary cells were transfected with CRTH2 or DP receptors (CHO/CRTH2 and CHO/DP) and were maintained in culture in a humidified atmosphere at 37° C. (5% CO2) in Minimum Essential Medium (MEM) supplemented with 10% foetal bovine serum, 2 mM glutamine, and 1 mg ml^−1 active G418. The cells were passaged every 2-3 days. For radioligand binding assay, cells were prepared in triple-layer flasks or in 175 cm^2 square flasks (for membrane preparation.
Membranes were prepared either from CHO/CRTH2 and CHO/DP cells, or from platelets (as a source of TP receptors). CHO cells grown to confluency were washed with PBS and detached using a Versene solution (15 ml per flask). When the cells were grown in 175 cm^2 square flask, they were collected by scrapping in PBS. The cell suspensions were centrifuged (1,700 rpm, 10 min, 4° C.) and resuspended in 15 ml of buffer (1×HBSS, supplemented with 10 mM HEPES, pH 7.3). Cell suspensions were then homogenised using an Ultra Turrax at setting 4-6 for 20 s. The homogenate was centrifuged at 1,700 rpm for 10 min and the supernatant was collected and centrifuged at 20,000 rpm for 1 h at 4° C. The resulting pellet was resuspended in buffer and stored at −80° C. in aliquots of 200-500 μl. The protein concentration was determined by the method of Bradford (1976), using bovine serum albumin as standard. The platelets were washed by centrifugation at 600×g for 10 min and resuspended in ice-cold assay buffer (10 mM Tris-HCl, pH 7.4, 5 mM Glucose, 120 mM NaCl, 10 μM indomethacin) and directly centrifuged at 20,000 rpm for 30 min at 4° C. The resulting pellet was treated as described above.
[^3H]PGD2 (160 Ci/mmol) binding experiments were performed on membranes prepared as described above. Assays were performed in a final volume of 100 μl of buffer (1×HBSS/HEPES 10 mM, pH 7.3). Cell membranes (15 μg) were preincubated at room temperature with varying concentration of competing ligand for 15 min. [^3H]PGD2 was then added and the incubation continued for a further one hour at room temperature. The reaction was terminated by the addition of 200 μl ice-cold assay buffer to each well, followed by rapid filtration through Whatman GF/B glass fibre filters using a Unifilter Cell harvester (PerkinElmer Life Sciences) and six washes of 300 μl of ice-cold buffer. The Unifilter plates were dried at room temperature for at least 1 h and the radioactivity retained on the filters was determined on a Beta Trilux counter (PerkinElmer Life Sciences), following addition of 40 μl of Optiphase Hi-Safe 3 (Wallac) liquid scintillation. Non specific binding was defined in the presence of 10 μM unlabelled PGD2. Assays were performed in duplicate.

[2] = system: PGD2 induced eosinophil shape change; assay: Human whole blood eosinophil shape change assay; type: cell-based; conditions: for IC50: Eosinophil, human whole blood, 10 nM PGD2, read-out: IC50 Values for the Effect of Test Compounds on 10 nM PGD2-induced Eosinophil Shape Change; for activity in whole blood, in words: summary statement on Table 2
Protocol: Compounds 1 to 9 were assayed for their effect on PGD2 induced eosinophil shape change.
Compounds (1 μl, 200× final concentration) were added directly to 200 μl whole blood, mixed well and incubated for 15 min, 37° C., 5% CO2. After this time, cell shape was fixed by addition of 300 μl Cytofix™ buffer (BD Biosciences), 15 min on ice. 10 ml RBC lysis buffer was added to the fixed cells, incubated 5 min, at room temperature and centrifuged, 300×g for 5 min. Supernatant (containing lysed red cells) was removed and the lysis step was repeated. Leukocytes were resuspended in 250 μl RPMI/10% FCS and shape change analysed by FACS. Eosinophils were gated out based on their autofluorescence and 2000 eosinophil events were counted per sample. Data were analysed in triplicate.

CRTH2 Receptor [3] = molecular target: T1, CRTH2 Receptor; assay: Radioligand binding assay, [3H]PGD2 on CHO/CRTH2 cell membranes; conditions: summary statement on Table 1

Row | SMILES | Ki (CRTH2 Receptor [1]) [nM] | IC50 [2] [nM] | activity in whole blood, in words [2] | intrinsic activity (CRTH2 antagonist), in words (CRTH2 Receptor [3])
1 | Cc1c(Cc2ccccc2S(=O)(=O)C2CCCCC2)c2cc(F)ccc2n1CC(=O)O [Compound 1, 2-(3-(2-(Cyclohexylsulfonyl)benzyl)-5-fluoro-2-methyl-1H-indol-1-yl)acetic acid] | 0.02 | 6 | activity is maintained in whole blood | high intrinsic activity
2 | Cc1c(Cc2ccccc2S(=O)(=O)N2CCCCC2)c2cc(F)ccc2n1CC(=O)O [Compound 2, 2-(5-Fluoro-2-methyl-3-(2-(piperidin-1-ylsulfonyl)benzyl)-1H-indol-1-yl)acetic Acid] | 0.04 | 5 | activity is maintained in whole blood | high intrinsic activity
3 | Cc1c(Cc2ccccc2S(=O)(=O)C2CCCC2)c2cc(F)ccc2n1CC(=O)O [Compound 3, 2-(3-(2-(Cyclopentylsulfonyl)benzyl)-5-fluoro-2-methyl-1H-indol-1-yl)acetic Acid] | 0.2 | 7 | activity is maintained in whole blood | high intrinsic activity
4 | Cc1c(Cc2cccc(S(=O)(=O)N3CCCCC3)c2)c2cc(F)ccc2n1CC(=O)O [Compound 4, 2-(5-Fluoro-2-methyl-3-(3-(piperidin-1-ylsulfonyl)benzyl)-1H-indol-1-yl)acetic Acid] | 55 | – | – | –
5 | Cc1c(Cc2ccccc2S(=O)(=O)N2CCCC2)c2cc(F)ccc2n1CC(=O)O [Compound 5, 2-(5-Fluoro-2-methyl-3-(2-(pyrrolidin-1-ylsulfonyl)benzyl)-1H-indol-1-yl)acetic Acid] | – | 5 | activity is maintained in whole blood | high intrinsic activity
6 | Cc1c(Cc2ccc(S(=O)(=O)C3CCCCC3)cc2)c2cc(F)ccc2n1CC(=O)O [Compound 6, 2-(3-(4-(Cyclohexylsulfonyl)benzyl)-5-fluoro-2-methyl-1H-indol-1-yl)acetic Acid] | 2 | 85 | – | –
7 | Cc1c(Cc2ccc(S(=O)(=O)C3CCCC3)cc2)c2cc(F)ccc2n1CC(=O)O [Compound 7, 2-(3-(4-(Cyclopentylsulfonyl)benzyl)-5-fluoro-2-methyl-1H-indol-1-yl)acetic Acid] | 5 | 44 | – | –
8 | Cc1c(Cc2ccccc2S(=O)(=O)C2CCC2)c2cc(F)ccc2n1CC(=O)O [Compound 8, 2-(3-(2-(Cyclobutylsulfonyl)benzyl)-5-fluoro-2-methyl-1H-indol-1-yl)acetic Acid] | 3 | 240 | – | –
9 | Cc1c(Cc2cccc(S(=O)(=O)N3CCCC3)c2)c2cc(F)ccc2n1CC(=O)O [Compound 9, 2-(5-Fluoro-2-methyl-3-(3-(pyrrolidin-1-ylsulfonyl)benzyl)-1H-indol-1-yl)acetic Acid] | 100 | – | – | –
10 | Cc1c(Cc2ccc(S(=O)(=O)N3CCCCC3)cc2)c2cc(F)ccc2n1CC(=O)O [Compound 10, 2-(5-Fluoro-2-methyl-3-(4-(piperidin-1-ylsulfonyl)benzyl)-1H-indol-1-yl)acetic Acid] | 1 | – | – | –
